Results published in PubChem BioAssay (NCI).
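Cultured in 96-well plates, cells were exposed to test compound for 48 hours across five concentrations. GI50 is the concentration that inhibits growth by half. TGI: total growth inhibition.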

Columns and labels:
Assay in all cases: NCI anticancer screen, dose series, 48 h
[1] = system: 786-0 renal
[2] = system: A498 renal
[3] = system: A549 NSCLC
[4] = system: ACHN renal
[5] = system: BT-549 breast
[6] = system: CAKI-1 renal
[7] = system: CCRF-CEM leukemia
[8] = system: COLO 205 colon
[9] = system: DU-145 prostate
[10] = system: EKVX NSCLC
[11] = system: HCC-2998 colon
[12] = system: HCT-116 colon
[13] = system: HCT-15 colon
[14] = system: HL-60(TB) leukemia
[15] = system: HOP-62 NSCLC
[16] = system: HOP-92 NSCLC
[17] = system: HS 578T breast
[18] = system: HT29 colon
[19] = system: IGROV1 ovarian
[20] = system: K-562 leukemia
[21] = system: KM12 colon
[22] = system: LOX IMVI melanoma
[23] = system: M14 melanoma
[24] = system: MALME-3M melanoma
[25] = system: MCF7 breast
[26] = system: MDA-MB-231 breast
[27] = system: MDA-MB-435
[28] = system: MOLT-4 leukemia
[29] = system: NCI-H226 lung
[30] = system: NCI-H23 lung
[31] = system: NCI-H460 lung
[32] = system: NCI-H522 lung
[33] = system: NCI/ADR-RES ovarian
[34] = system: OVCAR-3 ovarian
[35] = system: OVCAR-4 ovarian
[36] = system: OVCAR-5 ovarian
[37] = system: OVCAR-8 ovarian
[38] = system: PC-3 prostate
[39] = system: RPMI-8226 leukemia
[40] = system: RXF 393 renal
[41] = system: SF-268 CNS
[42] = system: SF-295 CNS
[43] = system: SF-539 CNS
[44] = system: SK-MEL-2 melanoma
[45] = system: SK-MEL-28 melanoma
[46] = system: SK-MEL-5 melanoma
[47] = system: SK-OV-3 ovarian
[48] = system: SN12C renal
[49] = system: SNB-19 CNS
[50] = system: SNB-75 CNS
[51] = system: SR leukemia
[52] = system: SW-620 colon
[53] = system: T-47D breast
[54] = system: TK-10 renal
[55] = system: U251 CNS
[56] = system: UACC-257 melanoma
[57] = system: UACC-62 melanoma
[58] = system: UO-31 renal

`FC(F)(F)c1ccc(-c2nn3ncccc3c2-c2ccnc(Nc3ccc4c(c3)OCCO4)n2)cc1` gave a GI50 [1] of 17.3 µM, a TGI [1] of over 25 µM and a GI50 [2] of 4.68 µM. It also gave a TGI [2] of over 25 µM, a GI50 [3] of 21.4 µM and a TGI [3] of over 25 µM. The GI50 [4] was 14.7 µM, the TGI [4] was over 25 µM and the GI50 [5] was 17.3 µM. It also gave a TGI [5] of over 25 µM, a GI50 [6] of 4.86 µM and a TGI [6] of over 19.2 µM. It also gave a GI50 [7] of 10.8 µM, a TGI [7] of over 25 µM and a GI50 [8] of 16.6 µM. The TGI [8] was over 25 µM, the GI50 [9] was 16.4 µM and the TGI [9] was over 25 µM. The GI50 [10] was 4.02 µM, the TGI [10] was over 25 µM and the GI50 [11] was 6.56 µM. It also gave a TGI [11] of over 25 µM, a GI50 [12] of 8.15 µM and a TGI [12] of over 25 µM. It also gave a GI50 [13] of 8.18 µM, a TGI [13] of over 25 µM and a GI50 [14] of 7.16 µM. The TGI [14] was over 21.8 µM, the GI50 [15] was over 25 µM and the TGI [15] was over 25 µM. For the same molecule, the GI50 [16] was 2.02 µM, the TGI [16] was 21.9 µM and the GI50 [17] was 10.9 µM. For the same molecule, the TGI [17] was over 25 µM, the GI50 [18] was 6.03 µM and the TGI [18] was over 25 µM. For the same molecule, the GI50 [19] was 5.19 µM, the TGI [19] was over 25 µM and the GI50 [20] was 8.79 µM. For the same molecule, the TGI [20] was over 25 µM, the GI50 [21] was 10.7 µM and the TGI [21] was over 25 µM. The GI50 [22] was 5.16 µM, the TGI [22] was 15.3 µM and the GI50 [23] was 8.92 µM. The TGI [23] was over 25 µM, the GI50 [24] was 7.29 µM and the TGI [24] was over 25 µM. It also gave a GI50 [25] of 8.04 µM, a TGI [25] of over 25 µM and a GI50 [26] of 3.49 µM. It also gave a TGI [26] of over 21.9 µM, a GI50 [27] of 10.7 µM and a TGI [27] of over 25 µM. It also gave a GI50 [28] of 6.11 µM, a TGI [28] of over 23.3 µM and a GI50 [29] of over 20.5 µM. For the same molecule, the TGI [29] was over 25 µM, the GI50 [30] was 14.7 µM and the TGI [30] was over 25 µM. It also gave a GI50 [31] of 11.9 µM, a TGI [31] of over 25 µM and a GI50 [32] of 8.79 µM. For the same molecule, the TGI [32] was over 25 µM, the GI50 [33] was 9.6 µM and the TGI [33] was over 25 µM. The GI50 [34] was 11.6 µM, the TGI [34] was over 25 µM and the GI50 [35] was 10.2 µM. The TGI [35] was over 25 µM, the GI50 [36] was 7.11 µM and the TGI [36] was over 23.2 µM. It also gave a GI50 [37] of 13.2 µM, a TGI [37] of over 25 µM and a GI50 [38] of 7.32 µM. For the same molecule, the TGI [38] was over 25 µM, the GI50 [39] was 5.97 µM and the TGI [39] was over 20.4 µM. It also gave a GI50 [40] of 4.4 µM, a TGI [40] of over 17 µM and a GI50 [41] of over 21.3 µM. For the same molecule, the TGI [41] was over 25 µM, the GI50 [42] was 6.91 µM and the TGI [42] was over 25 µM. The GI50 [43] was over 19.7 µM, the TGI [43] was over 25 µM and the GI50 [44] was 11.6 µM. For the same molecule, the TGI [44] was over 25 µM, the GI50 [45] was over 25 µM and the TGI [45] was over 25 µM. For the same molecule, the GI50 [46] was 6.42 µM, the TGI [46] was over 25 µM and the GI50 [47] was 9.08 µM. It also gave a TGI [47] of over 25 µM, a GI50 [48] of 9.77 µM and a TGI [48] of over 25 µM. The GI50 [49] was over 25 µM, the TGI [49] was over 25 µM and the GI50 [50] was over 8.49 µM. It also gave a TGI [50] of over 25 µM, a GI50 [51] of over 25 µM and a TGI [51] of over 25 µM. It also gave a GI50 [52] of over 25 µM, a TGI [52] of over 25 µM and a GI50 [53] of 4.78 µM. The TGI [53] was over 25 µM, the GI50 [54] was 10.1 µM and the TGI [54] was over 25 µM. For the same molecule, the GI50 [55] was 14.1 µM, the TGI [55] was over 25 µM and the GI50 [56] was 7.23 µM. The TGI [56] was over 25 µM, the GI50 [57] was 10 µM and the TGI [57] was over 25 µM. The GI50 [58] was 3 µM and the TGI [58] was over 21.9 µM.
Molecule `CCOc1cc(/C=C/C(=O)C(C(=O)/C=C/c2ccc(OC(=O)CNc3nc4ccccc4[nH]3)c(OCC)c2)C(=O)CNc2nc3ccccc3[nH]2)ccc1OC(=O)CNc1nc2ccccc2[nH]1` has a GI50 [2] of 1.68 µM, a TGI [2] of 3.87 µM and a GI50 [3] of 3.55 µM. It also gave a TGI [3] of 27 µM, a GI50 [4] of 2.31 µM and a TGI [4] of 6.68 µM. For the same molecule, the GI50 [5] was 1.45 µM, the TGI [5] was 3.13 µM and the GI50 [7] was 1.14 µM. The TGI [7] was 3.16 µM, the GI50 [8] was 2.08 µM and the TGI [8] was 4.61 µM. For the same molecule, the GI50 [9] was 1.7 µM, the TGI [9] was 3.72 µM and the GI50 [10] was 1.99 µM. For the same molecule, the TGI [10] was 5.37 µM, the GI50 [11] was 1.69 µM and the TGI [11] was 3.22 µM. It also gave a GI50 [12] of 1.63 µM, a TGI [12] of 4.84 µM and a GI50 [13] of 2.53 µM. For the same molecule, the TGI [13] was 7.87 µM, the GI50 [14] was 1.62 µM and the TGI [14] was 3.61 µM. For the same molecule, the GI50 [15] was 4.23 µM, the TGI [15] was over 100 µM and the GI50 [16] was 1.4 µM. The TGI [16] was 4.26 µM, the GI50 [17] was 1.83 µM and the TGI [17] was 5.18 µM. The GI50 [18] was 1.29 µM, the TGI [18] was 2.56 µM and the GI50 [19] was 2.93 µM. For the same molecule, the TGI [19] was over 100 µM, the GI50 [20] was 1.44 µM and the TGI [20] was 2.75 µM. It also gave a GI50 [21] of 1.62 µM, a TGI [21] of 3.26 µM and a GI50 [22] of 1.66 µM. It also gave a TGI [22] of 3.02 µM, a GI50 [23] of 2.14 µM and a TGI [23] of 6.76 µM. For the same molecule, the GI50 [24] was 1.75 µM, the TGI [24] was 5.93 µM and the GI50 [25] was 1.06 µM. It also gave a TGI [25] of 3.56 µM, a GI50 [26] of 2.39 µM and a TGI [26] of 7.29 µM. It also gave a GI50 [27] of 2.07 µM, a TGI [27] of 6.92 µM and a GI50 [28] of 1.47 µM. For the same molecule, the TGI [28] was 3.04 µM, the GI50 [29] was 2.07 µM and the TGI [29] was 5.67 µM. It also gave a GI50 [30] of 2.5 µM, a TGI [30] of 9.71 µM and a GI50 [31] of 1.92 µM. The TGI [31] was 4.44 µM, the GI50 [32] was 3.29 µM and the TGI [32] was 12.5 µM. For the same molecule, the GI50 [33] was 3.39 µM, the TGI [33] was 74 µM and the GI50 [34] was 2.81 µM. The TGI [34] was 12.3 µM, the GI50 [35] was 3.39 µM and the TGI [35] was 22.7 µM. The GI50 [36] was 2.09 µM, the TGI [36] was 5.22 µM and the GI50 [38] was 2.12 µM. The TGI [38] was 6.23 µM, the GI50 [39] was 0.754 µM and the TGI [39] was 2.51 µM. For the same molecule, the GI50 [40] was 4.08 µM, the TGI [40] was over 100 µM and the GI50 [41] was 2 µM. The TGI [41] was 6.79 µM, the GI50 [42] was 7.86 µM and the TGI [42] was 22.7 µM. The GI50 [43] was 1.61 µM, the TGI [43] was 3.1 µM and the GI50 [44] was 3.26 µM. For the same molecule, the TGI [44] was 28.8 µM, the GI50 [45] was 1.77 µM and the TGI [45] was 3.56 µM. For the same molecule, the GI50 [46] was 1.6 µM, the TGI [46] was 3.02 µM and the GI50 [47] was 3.17 µM. The TGI [47] was 11.9 µM, the GI50 [48] was 2.21 µM and the TGI [48] was 5.61 µM. For the same molecule, the GI50 [49] was 2.96 µM, the TGI [49] was 11.7 µM and the GI50 [50] was 3.73 µM. For the same molecule, the TGI [50] was 27.9 µM, the GI50 [51] was 0.788 µM and the TGI [51] was 2.53 µM. It also gave a GI50 [52] of 1.6 µM, a TGI [52] of 2.95 µM and a GI50 [53] of 2.86 µM. For the same molecule, the TGI [53] was 14.9 µM, the GI50 [54] was 3.24 µM and the TGI [54] was 14.2 µM. It also gave a GI50 [55] of 1.94 µM, a TGI [55] of 4.34 µM and a GI50 [56] of 2.85 µM. The TGI [56] was 8.73 µM, the GI50 [57] was 1.9 µM and the TGI [57] was 3.98 µM. It also gave a GI50 [58] of 3.98 µM and a TGI [58] of over 100 µM.
